Earlier results, collected in patent publication US20240165036A1, “ENCAPSULATED VITAMIN D” (Nulixir Inc., priority 2022, published 2024).

Conditions: reference phases water and n-octanol; pH=7 unless stated otherwise

Row | log P | Structure (SMILES)
1 | ~2.8 | COc1ccc(/C=C/c2cc(OC)cc(=O)o2)cc1 [yangonin]
2 | ~−0.78 | Cn1cnc2c1c(=O)[nH]c(=O)n2C [theobromine]
3 | ~2.5 | COc1cc(O)c2c(=O)c(OC)c(-c3ccc(O)cc3)oc2c1 [kumatakenin]
4 | ~−3 | CCNC(=O)CC[C@H](N)C(=O)O [L-theanine]
5 | ~0.4 | O=C(O)c1cc(C(=O)O)c2c(n1)C(=O)C(=O)c1cc(C(=O)O)[nH]c1-2 [PQQ, pyrroloquinoline quinone]

More lines, now with the values behind:

Row | Structure (SMILES) | log P
6 | NCCCC(=O)O [GABA, gamma-aminobutyric acid] | ~−3
7 | N[C@@H](Cc1ccccc1)C(=O)O [L-phenylalanine] | ~−1.38
8 | N[C@@H](Cc1c[nH]c2ccc(O)cc12)C(=O)O [Dispersion 5-HTP, 5-hydroxytryptophan] | ~−2
9 | O=C(/C=C/c1ccccc1)N1CCCC1 [(E)-1-cinnamoylpyrrolidine] | ~2.2
